Target: hQC (Homo sapiens, UniProt Q16769)
Assay: Inhibitor assay for glutaminyl cyclase activity (fluorometric, H-Gln-βNA / H-Gln-AMC)
Format: biochemical
Settings: read-out: IC50
Experimental: All measurements were performed with a BioAssay Reader HTS-7000Plus for microplates (Perkin Elmer) at 30° C. QC activity was evaluated fluorometrically using H-Gln-βNA. The samples consisted of 0.2 mM fluorogenic substrate, 0.25 U pyroglutamyl aminopeptidase (Unizyme, Hørsholm, Denmark) in 0.2 M Tris/HCl, pH 8.0 containing 20 mM EDTA and an appropriately diluted aliquot of QC in a final volume of 250 μl. Excitation/emission wavelengths were 320/410 nm. The assay reactions were initiated by addition of glutaminyl cyclase. QC activity was determined from a standard curve of β-naphthylamine under assay conditions. One unit is defined as the amount of QC catalyzing the formation of 1 μmol pGlu-βNA from H-Gln-βNA per minute under the described conditions.
In a second fluorometric assay, QC activity was determined using H-Gln-AMC as substrate. Reactions were carried out at 30° C. utilizing the NOVOStar reader for microplates (BMG labtechnologies). The samples consisted of varying concentrations of the fluorogenic substrate, 0.1 U pyroglutamyl aminopeptidase (Qiagen) in 0.05 M Tris/HCl, pH 8.0 containing 5 mM EDTA and an appropriately diluted aliquot of QC in a final volume of 250 μl. Excitation/emission wavelengths were 380/460 nm. The assay reactions were initiated by addition of glutaminyl cyclase. QC activity was determined from a standard curve of 7-amino-4-methylcoumarin under assay conditions. The kinetic data were evaluated using GraFit sofware.
For inhibitor testing, the sample composition was the same as described above, except of the putative inhibitory compound added. For a rapid test of QC-inhibition, samples contained 4 mM of the respective inhibitor and a substrate concentration at 1 KM. For detailed investigations of the inhibition and determination of Ki-values, influence of the inhibitor on the auxiliary enzymes was investigated first. In every case, there was no influence on either enzyme detected, thus enabling the reliable determination of the QC inhibition. The inhibitory constant was evaluated by fitting the set of progress curves to the general equation for competitive inhibition using GraFit software.

Sequence of hQC (Q16769 29-361): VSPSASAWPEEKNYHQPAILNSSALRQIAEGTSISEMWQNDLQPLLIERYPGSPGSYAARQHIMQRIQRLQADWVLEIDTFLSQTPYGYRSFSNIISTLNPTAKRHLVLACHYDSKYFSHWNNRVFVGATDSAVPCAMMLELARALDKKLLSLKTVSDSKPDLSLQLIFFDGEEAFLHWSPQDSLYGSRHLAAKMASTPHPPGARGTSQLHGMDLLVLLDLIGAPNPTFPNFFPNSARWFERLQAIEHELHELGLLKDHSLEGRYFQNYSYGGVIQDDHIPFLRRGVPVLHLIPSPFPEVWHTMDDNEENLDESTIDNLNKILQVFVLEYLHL

Compound | IC50 [nM]
CCC(C)C1C(F)=C(O)C(=O)N1CCCn1ccnc1 (centres unmarked) [Compound 1, 5-sec-Butyl-4-fluoro-3-hydroxy-1-(3-imidazol-1-yl-propyl)-1,5-dihydro-pyrrol-2-one] | 3100
CCCCCC1C(F)=C(O)C(=O)N1CCCn1ccnc1 (centres unmarked) [Compound 2, 4-Fluoro-3-hydroxy-1-(3-imidazol-1-yl-propyl)-5-pentyl-1,5-dihydro-pyrrol-2-one] | 4900
CC1C(F)=C(O)C(=O)N1CCCn1ccnc1 (centres unmarked) [Compound 3, 4-Fluoro-3-hydroxy-1-(3-imidazol-1-yl-propyl)-5-methyl-1,5-dihydro-pyrrol-2-one] | 8500
O=C1C(O)=C(c2cccc(O)c2)C(c2cc(Cl)cc(Cl)c2O)N1CCCn1ccnc1 (centres unmarked) [Compound 4, 5-(3,5-Dichloro-2-hydroxy-phenyl)-3-hydroxy-4-(3-hydroxy-phenyl)-1-(3-imidazol-1-yl-propyl)-1,5-dihydro-pyrrol-2-one] | 2200
Cc1ccc(C2C(c3cccc(O)c3)=C(O)C(=O)N2CCCn2ccnc2)cc1 (centres unmarked) [Compound 5, 3-Hydroxy-4-(3-hydroxy-phenyl)-1-(3-imidazol-1-yl-propyl)-5-p-tolyl-1,5-dihydro-pyrrol-2-one] | 2200
CCC/C=C/C1C(c2cccc(O)c2)=C(O)C(=O)N1CCCn1ccnc1 (centres unmarked) [Compound 6, 3-Hydroxy-4-(3-hydroxy-phenyl)-1-(3-imidazol-1-yl-propyl)-5-(pent-1-enyl)-1,5-dihydro-pyrrol-2-one] | 5800
CCCC1C(c2cccc(O)c2)=C(O)C(=O)N1CCCn1ccnc1 (centres unmarked) [Compound 7, 3-Hydroxy-4-(3-hydroxy-phenyl)-1-(3-imidazol-1-yl-propyl)-5-propyl-1,5-dihydro-pyrrol-2-one] | 400
O=C1C(O)=C(c2cccc(O)c2)C(c2cc[nH]n2)N1CCCn1ccnc1 (centres unmarked) [Compound 8, 3-Hydroxy-4-(3-hydroxy-phenyl)-1-(3-imidazol-1-yl-propyl)-5-(1H-pyrazol-3-yl)-1,5-dihydro-pyrrol-2-one] | 9400
O=C1C(O)=C(c2cccc(O)c2)C(C(O)CO)N1CCCn1ccnc1 (centres unmarked) [Compound 9, 5-(1,2-Dihydroxy-ethyl)-3-hydroxy-4-(3-hydroxy-phenyl)-1-(3-imidazol-1-yl-propyl)-1,5-dihydro-pyrrol-2-one] | 2200
CC(C)/C=C/C1C(c2cccc(O)c2)=C(O)C(=O)N1CCCn1ccnc1 (centres unmarked) [Compound 10, 3-Hydroxy-4-(3-hydroxy-phenyl)-1-(3-imidazol-1-yl-propyl)-5-(3-methyl-but-1-enyl)-1,5-dihydro-pyrrol-2-one] | 5800
Cc1ccc(C2C(c3cccc(O)c3)=C(O)C(=O)N2CCCn2ccnc2)o1 (centres unmarked) [Compound 11, 3-Hydroxy-4-(3-hydroxy-phenyl)-1-(3-imidazol-1-yl-propyl)-5-(5-methyl-furan-2-yl)-1,5-dihydro-pyrrol-2-one] | 2200
O=C1C(O)=C(c2cccc(O)c2)C(c2ccc3[nH]ccc3c2)N1CCCn1ccnc1 (centres unmarked) [Compound 12, 3-Hydroxy-4-(3-hydroxy-phenyl)-1-(3-imidazol-1-yl-propyl)-5-(1H-indol-5-yl)-1,5-dihydro-pyrrol-2-one] | 1300
COc1ccc(C2C(c3cccc(O)c3)=C(O)C(=O)N2CCCn2ccnc2)cc1 (centres unmarked) [Compound 13, 3-Hydroxy-4-(3-hydroxy-phenyl)-1-(3-imidazol-1-yl-propyl)-5-(4-methoxy-phenyl)-1,5-dihydro-pyrrol-2-one] | 2200
O=C1C(O)=C(c2cccc(O)c2)C(c2ccccc2O)N1CCCn1ccnc1 (centres unmarked) [Compound 14, 3-Hydroxy-5-(2-hydroxy-phenyl)-4-(3-hydroxy-phenyl)-1-(3-imidazol-1-yl-propyl)-1,5-dihydro-pyrrol-2-one] | 2200
Cc1ccc(C2C(c3cccc(O)c3)=C(O)C(=O)N2CCCn2ccnc2)cc1C (centres unmarked) [Compound 15, 5-(3,4-Dimethyl-phenyl)-3-hydroxy-4-(3-hydroxy-phenyl)-1-(3-imidazol-1-yl-propyl)-1,5-dihydro-pyrrol-2-one] | 1300
CCCCCC1C(c2cccc(O)c2)=C(O)C(=O)N1CCCn1ccnc1 (centres unmarked) [Compound 16, 3-Hydroxy-4-(3-hydroxy-phenyl)-1-(3-imidazol-1-yl-propyl)-5-pentyl-1,5-dihydro-pyrrol-2-one] | 400
O=C1C(O)=C(c2cccc(O)c2)C(c2ccc(CO)o2)N1CCCn1ccnc1 (centres unmarked) [Compound 17, 3-Hydroxy-5-(5-hydroxymethyl-furan-2-yl)-4-(3-hydroxy-phenyl)-1-(3-imidazol-1-yl-propyl)-1,5-dihydro-pyrrol-2-one] | 5800
O=C1C(O)=C(c2cccc(O)c2)C(c2c[nH]c3ccccc23)N1CCCn1ccnc1 (centres unmarked) [Compound 18, 3-Hydroxy-4-(3-hydroxy-phenyl)-1-(3-imidazol-1-yl-propyl)-5-(1H-indol-3-yl)-1,5-dihydro-pyrrol-2-one] | 9400

Compound | IC50 [nM]
O=C1C(O)=C(c2cccc(O)c2)C(C2CC2)N1CCCn1ccnc1 (centres unmarked) [Compound 19, 5-Cyclopropyl-3-hydroxy-4-(3-hydroxy-phenyl)-1-(3-imidazol-1-yl-propyl)-1,5-dihydro-pyrrol-2-one] | 1300
CC1=C(O)C(=O)N(CCCn2ccnc2)C1c1cc(Cl)cc(Cl)c1O (centres unmarked) [Compound 20, 5-(3,5-Dichloro-2-hydroxy-phenyl)-3-hydroxy-1-(3-imidazol-1-yl-propyl)-4-methyl-1,5-dihydro-pyrrol-2-one] | 400
CC1=C(O)C(=O)N(CCCn2ccnc2)C1c1ccc(C)cc1 (centres unmarked) [Compound 21, 3-Hydroxy-1-(3-imidazol-1-yl-propyl)-4-methyl-5-p-tolyl-1,5-dihydro-pyrrol-2-one] | 2200
CCCC1C(C)=C(O)C(=O)N1CCCn1ccnc1 (centres unmarked) [Compound 22, 3-Hydroxy-1-(3-imidazol-1-yl-propyl)-4-methyl-5-propyl-1,5-dihydro-pyrrol-2-one] | 4900
CC1=C(O)C(=O)N(CCCn2ccnc2)C1c1cc[nH]n1 (centres unmarked) [Compound 23, 3-Hydroxy-1-(3-imidazol-1-yl-propyl)-4-methyl-5-(1H-pyrazol-3-yl)-1,5-dihydro-pyrrol-2-one] | 7600
CC1=C(O)C(=O)N(CCCn2ccnc2)C1/C=C/C(C)C (centres unmarked) [Compound 24, 3-Hydroxy-1-(3-imidazol-1-yl-propyl)-4-methyl-5-(3-methyl-but-1-enyl)-1,5-dihydro-pyrrol-2-one] | 5800
CC1=C(O)C(=O)N(CCCn2ccnc2)C1c1ccc(C)o1 (centres unmarked) [Compound 25, 3-Hydroxy-1-(3-imidazol-1-yl-propyl)-4-methyl-5-(5-methyl-furan-2-yl)-1,5-dihydro-pyrrol-2-one] | 4900
CC1=C(O)C(=O)N(CCCn2ccnc2)C1c1ccc2[nH]ccc2c1 (centres unmarked) [Compound 26, 3-Hydroxy-1-(3-imidazol-1-yl-propyl)-5-(1H-indol-5-yl)-4-methyl-1,5-dihydro-pyrrol-2-one] | 40
COc1ccc(C2C(C)=C(O)C(=O)N2CCCn2ccnc2)cc1 (centres unmarked) [Compound 27, 3-Hydroxy-1-(3-imidazol-1-yl-propyl)-5-(4-methoxy-phenyl)-4-methyl-1,5-dihydro-pyrrol-2-one] | 4000
CC1=C(O)C(=O)N(CCCn2ccnc2)C1c1ccccc1O (centres unmarked) [Compound 28, 3-Hydroxy-5-(2-hydroxy-phenyl)-1-(3-imidazol-1-yl-propyl)-4-methyl-1,5-dihydro-pyrrol-2-one] | 400
CC1=C(O)C(=O)N(CCCn2ccnc2)C1c1ccc(C)c(C)c1 (centres unmarked) [Compound 29, 5-(3,4-Dimethyl-phenyl)-3-hydroxy-1-(3-imidazol-1-yl-propyl)-4-methyl-1,5-dihydro-pyrrol-2-one] | 400
CCCCCC1C(C)=C(O)C(=O)N1CCCn1ccnc1 (centres unmarked) [Compound 30, 3-Hydroxy-1-(3-imidazol-1-yl-propyl)-4-methyl-5-pentyl-1,5-dihydro-pyrrol-2-one] | 400
CC1=C(O)C(=O)N(CCCn2ccnc2)C1C (centres unmarked) [Compound 31, 3-Hydroxy-1-(3-imidazol-1-yl-propyl)-4,5-dimethyl-1,5-dihydro-pyrrol-2-one] | 6700
CC1=C(O)C(=O)N(CCCn2ccnc2)C1c1ccc(CO)o1 (centres unmarked) [Compound 32, 3-Hydroxy-5-(5-hydroxymethyl-furan-2-yl)-1-(3-imidazol-1-yl-propyl)-4-methyl-1,5-dihydro-pyrrol-2-one] | 1300
CC1=C(O)C(=O)N(CCCn2ccnc2)C1/C=C/c1ccccc1 (centres unmarked) [Compound 33, 3-Hydroxy-1-(3-imidazol-1-yl-propyl)-4-methyl-5-(styryl)-1,5-dihydro-pyrrol-2-one] | 3100
CC1=C(O)C(=O)N(CCCn2ccnc2)C1c1ccccc1 (centres unmarked) [Compound 34, 3-Hydroxy-1-(3-imidazol-1-yl-propyl)-4-methyl-5-phenyl-1,5-dihydro-pyrrol-2-one] | 1300
CC1=C(O)C(=O)N(CCCn2ccnc2)C1C1CCC=CO1 (centres unmarked) [Compound 35, 5-(3,4-Dihydro-2H-pyran-2-yl)-3-hydroxy-1-(3-imidazol-1-yl-propyl)-4-methyl-1,5-dihydro-pyrrol-2-one] | 2200

From patent US8278345B2, “Inhibitors of glutaminyl cyclase” (Probiodrug AG, priority 2006, dated 2012)
